The source of these data is ChEMBL document CHEMBL1201862, “PubChem BioAssay data set” (2004).

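In this assay, cells in 96-well plates receive the compound at five concentrations for 48 hours. Endpoints are linearly interpolated between the surrounding concentrations. At the GI50, growth is halved.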 Active and inactive are the calls of the source. Cut-off read from the data, not from the text of the source: active = GI50 up to about 1.1 µM and inactive = higher.

Test systems include EKVX; HCC 2998; HCT-15; HOP-18; KM12; LOX IMVI; Malme-3M; NCI-H23; NCI-H460; NCI-H522; RPMI-8226; SK-MEL-28; SNB-19; SW-620; U-251; UO-31; HOP-62; MOLT-4.
Test in all cases: DTP human tumour cell line panel, 48 h

Take `[C-]#[N+][C@@H]1C2[C@H](CC[C@@]1(C)O)C(=C)CC[C@@H]2[C@@]1(C)CC[C@H](Cl)C(C)(C)O1` (some centres undefined): the GI50 (commonly the concentration at which growth is held to half of that of the control) is 7.14 µM (inactive) in the experiment with EKVX; 11.1 µM (inactive) in the experiment with HCC 2998; 2.55 µM with HCT-15; 2.71 µM (inactive) in the experiment on HOP-18; 3.53 µM (inactive) with KM12; 3.95 µM (inactive) in the experiment on LOX IMVI. Besides, the GI50 is 5.28 µM (inactive) with Malme-3M; 4.75 µM (inactive) in the experiment with NCI-H23; 8.3 µM (inactive) in the experiment on NCI-H460; 4.42 µM (inactive) with NCI-H522; 2.51 µM (inactive) in the experiment with RPMI-8226; 26.3 µM (inactive) in the experiment with SK-MEL-28. The GI50 in the experiment on SNB-19 was 7.1 µM (inactive); with SW-620, 5.64 µM (inactive); with U-251, 8.87 µM (inactive); in the experiment with UO-31, 2.06 µM (inactive).
As for `CC1CC(=O)Nc2ccccc2N1C(=O)CN1CCC(CCCCN(C)C)CC1` (centres undefined), the GI50 is > 100 µM (inactive) with EKVX; > 100 µM (inactive) in the experiment with HCC 2998; greater than 100 µM in the experiment with HCT-15; > 100 µM (inactive) in the experiment with HOP-18; > 100 µM (inactive) in the experiment with HOP-62; > 100 µM (inactive) in the experiment with KM12. In addition, the GI50 with LOX IMVI, in the experiment on MOLT-4, in the experiment with Malme-3M, in the experiment on NCI-H23, with NCI-H460 and in the experiment with NCI-H522 was > 100 µM (inactive) in each case. Besides, the GI50 with RPMI-8226, with SK-MEL-28, with SNB-19, in the experiment with SW-620, in the experiment on U-251 and in the experiment with UO-31 was > 100 µM (inactive) in each case.
Consider `Nc1cccc(C(=O)/C=C/c2ccccc2O)c1`, for which the GI50 with EKVX was > 100 µM (inactive); with HCC 2998, > 100 µM (inactive); in the experiment with HCT-15, greater than 100 µM; in the experiment with HOP-18, 84.3 µM (inactive); in the experiment with HOP-62, > 100 µM (inactive); in the experiment with KM12, > 100 µM (inactive). Besides, the GI50 in the experiment on LOX IMVI was 31.4 µM (inactive); with MOLT-4, > 100 µM (inactive); in the experiment with Malme-3M it was > 100 µM (inactive); with NCI-H23, > 100 µM (inactive); in the experiment with NCI-H460, > 100 µM (inactive); with NCI-H522, 59.4 µM (inactive). For the same molecule, the GI50 is 16.2 µM (inactive) with RPMI-8226; > 100 µM (inactive) in the experiment with SK-MEL-28; > 100 µM (inactive) in the experiment on SNB-19; 12.2 µM (inactive) with SW-620; 98.6 µM (inactive) in the experiment with U-251; > 100 µM (inactive) in the experiment with UO-31.
In the case of `NC(=O)C(=O)Cc1nc2ccccc2s1`, the GI50 in the experiment with EKVX is > 100 µM (inactive); in the experiment with HCC 2998, > 100 µM (inactive); in the experiment with HCT-15 it was greater than 100 µM; in the experiment on HOP-18, > 100 µM (inactive); in the experiment with HOP-62 it was > 100 µM (inactive); with KM12, > 100 µM (inactive). In addition, the GI50 with LOX IMVI, with MOLT-4, in the experiment on Malme-3M, with NCI-H23, with NCI-H460 and with NCI-H522 was > 100 µM (inactive) in each case. For the same molecule, the GI50 in the experiment on RPMI-8226, with SK-MEL-28, with SNB-19, in the experiment on SW-620, with U-251 and with UO-31 was > 100 µM (inactive) in each case.
As for `N#CC(C#N)=c1ccc(=C2N3CCCC3CN2C23CC4CC(CC(C4)C2)C3)cc1` (centres undefined), the GI50 in the experiment with EKVX is > 100 µM (inactive); in the experiment with HCC 2998, > 100 µM (inactive); with HCT-15, greater than 100 µM; in the experiment with HOP-18 it was > 100 µM (inactive); in the experiment on HOP-62, 24.4 µM (inactive); in the experiment with KM12, > 100 µM (inactive). The GI50 in the experiment on LOX IMVI, in the experiment on MOLT-4, with Malme-3M, in the experiment with NCI-H23, in the experiment on NCI-H460 and in the experiment with NCI-H522 was > 100 µM (inactive) each time. The GI50 with RPMI-8226 was > 100 µM (inactive); with SK-MEL-28, 69.3 µM (inactive); in the experiment with SNB-19, 84.1 µM (inactive); in the experiment on SW-620, > 100 µM (inactive); with U-251 it was > 100 µM (inactive); in the experiment with UO-31, > 100 µM (inactive).
Regarding `COC(=O)CCC(NC(=S)N/N=C(\C)c1cnccn1)C(=O)OC` (centres undefined), the GI50 with EKVX is 40 µM (inactive); in the experiment on HCC 2998 it was 56.5 µM (inactive); in the experiment on HCT-15, 44.5 µM; in the experiment with HOP-18, 56.1 µM (inactive); in the experiment with HOP-62, 36.2 µM (inactive); in the experiment with KM12, 70.6 µM (inactive). Besides, the GI50 is 31.6 µM (inactive) with LOX IMVI; 15.7 µM (inactive) in the experiment with MOLT-4; 54.1 µM (inactive) in the experiment on Malme-3M; 87.5 µM (inactive) with NCI-H23; 53 µM (inactive) in the experiment on NCI-H460; 27 µM (inactive) in the experiment with NCI-H522. In addition, the GI50 in the experiment on RPMI-8226 is 44.9 µM (inactive); in the experiment with SK-MEL-28 it was 55.8 µM (inactive); in the experiment on SNB-19, > 100 µM (inactive); in the experiment on SW-620 it was 49.3 µM (inactive); in the experiment on U-251, 52.4 µM (inactive); in the experiment on UO-31, 49.1 µM (inactive).
Take `CCc1ccccc1N1C(=O)C(=O)C(c2nc3ccccc3s2)C(=O)C1=O`: the GI50 in the experiment with EKVX is > 100 µM (inactive); in the experiment with HCC 2998 it was > 100 µM (inactive); in the experiment with HCT-15 it was greater than 100 µM; with HOP-18 it was > 100 µM (inactive); in the experiment on HOP-62, > 100 µM (inactive); with KM12, > 100 µM (inactive). The GI50 is > 100 µM (inactive) in the experiment on LOX IMVI; 42.2 µM (inactive) in the experiment with MOLT-4; > 100 µM (inactive) in the experiment with Malme-3M; 66.2 µM (inactive) with NCI-H23; > 100 µM (inactive) in the experiment on NCI-H460; > 100 µM (inactive) in the experiment on NCI-H522. Also, the GI50 in the experiment on RPMI-8226 was 72.4 µM (inactive); with SK-MEL-28 it was > 100 µM (inactive); with SNB-19, > 100 µM (inactive); in the experiment with SW-620, 83.8 µM (inactive); in the experiment with U-251, 36.1 µM (inactive); in the experiment on UO-31, > 100 µM (inactive).
